Read-outs that look alike come from different tables or passages of the source. *1 amine or outer side, *2 acyl side, *3 side chain or, on linkers, in order; H or OH if unused. Where a SMILES comes first, the peptide text is derived from it. Side-chain parts run from the residue outwards. The star is where a group is joined. γGlu = O=C(O)[C@H](CCC(=O)[*:2])N[*:1]; Palmitoyl = CCCCCCCCCCCCCCCC(=O)*
Assays:
human GLP-1R = human GLP-1R (Homo sapiens, UniProt P43220); test: Peptide-receptor mediated cAMP accumulation (LANCE Ultra cAMP) in CHO-K1 cells transfected with human GLP-1R; assay type: cell-based
Chain of human GLP-1R (P43220 24-463): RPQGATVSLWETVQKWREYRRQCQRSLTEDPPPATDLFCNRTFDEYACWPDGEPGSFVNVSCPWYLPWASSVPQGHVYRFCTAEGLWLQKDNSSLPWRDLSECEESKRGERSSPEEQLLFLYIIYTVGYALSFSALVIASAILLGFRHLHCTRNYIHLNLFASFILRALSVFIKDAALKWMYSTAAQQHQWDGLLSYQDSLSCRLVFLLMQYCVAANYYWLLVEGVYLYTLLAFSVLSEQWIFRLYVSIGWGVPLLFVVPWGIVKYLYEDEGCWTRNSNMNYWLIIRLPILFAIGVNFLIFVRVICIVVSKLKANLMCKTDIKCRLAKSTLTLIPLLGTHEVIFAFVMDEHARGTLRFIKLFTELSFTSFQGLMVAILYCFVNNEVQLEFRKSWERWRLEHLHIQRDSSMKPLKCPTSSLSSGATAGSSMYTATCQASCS

[1] = Solubility in water or saline at room temperature, visual inspection; assay type: physicochemical; settings: Solubility in water mg/ml
Description: Samples were visually inspected for clarity of the sample, any appearance of turbidity or haziness.

[2] = Stability in water or saline at 37° C. and room temperature, 30 days, LC/MS and HPLC purity; assay type: physicochemical
Description: Samples were withdrawn at a regular interval for 30 days and analyzed by LC/MS and HPLC for determination of purity and mass of the degradation product.

in vivo = settings: male, rat
Description: Peptides were formulated in sterile saline and administered as a 3-hour intravenous infusion to non-fasted male Wistar Han or Sprague-Dawley rats (n=3 per group) via jugular vein cannula at a final dose of 0.3 or 0.1 mg/kg. […] Plasma was prepared by centrifugation and stored at −80° C. until analysis.
Protein Precipitation: All 96-well plates were coated with a blocking agent to mitigate non-specific binding of peptides. Plasma samples (75 uL) were added to a 96-well plate containing 200 uL of 2:1 ethanol:acetonitrile containing 0.1% TFA and mixed well via aspiration. Plates were capped, vortex-mixed and centrifuged. Supernatants (215 uL) were transferred to a clean 96-well plate, evaporated to dryness under nitrogen flow and then reconstituted in 75 μL of 20% acetonitrile in water containing 0.10% formic acid.
Solid-Phase Extraction: Samples were diluted 3-fold with 5% NH4OH (aq) and loaded onto an Oasis MAX microElution plate (Waters Corp, Milford, MA) that had been pre-conditioned with 200 uL each of methanol and 5% NH4OH (aq). The plate was washed with 200 uL 5% NH4OH (aq), followed by 200 uL 20% acetonitrile in water. […] Samples were reconstituted in 80 uL 0.1% formic acid in water.
All calibration standards were prepared in control rat plasma containing K2EDTA and protease inhibitor cocktail. […] Samples were injected onto a 2.1×50 mm reverse phase C18 analytical column, typically a Waters ACQUITY UPLC™ HSS T3, 1.8 μm (Waters Corporation, Milford, MA) or similar. […] Typical flow rates were 600 L/min. The column temperature was held constant at 40 or 45° C. Peptides were quantified my monitoring one or more product ions produced from a multiply charged parent ion.

human GCGR = human GCGR (Homo sapiens, UniProt P47871); test: Peptide-receptor mediated cAMP accumulation (LANCE Ultra cAMP) in CHO-K1 cells transfected with human GCGR; assay type: cell-based; settings: read-out: GluR pEC50 (converted)
Chain of human GCGR (P47871 26-477): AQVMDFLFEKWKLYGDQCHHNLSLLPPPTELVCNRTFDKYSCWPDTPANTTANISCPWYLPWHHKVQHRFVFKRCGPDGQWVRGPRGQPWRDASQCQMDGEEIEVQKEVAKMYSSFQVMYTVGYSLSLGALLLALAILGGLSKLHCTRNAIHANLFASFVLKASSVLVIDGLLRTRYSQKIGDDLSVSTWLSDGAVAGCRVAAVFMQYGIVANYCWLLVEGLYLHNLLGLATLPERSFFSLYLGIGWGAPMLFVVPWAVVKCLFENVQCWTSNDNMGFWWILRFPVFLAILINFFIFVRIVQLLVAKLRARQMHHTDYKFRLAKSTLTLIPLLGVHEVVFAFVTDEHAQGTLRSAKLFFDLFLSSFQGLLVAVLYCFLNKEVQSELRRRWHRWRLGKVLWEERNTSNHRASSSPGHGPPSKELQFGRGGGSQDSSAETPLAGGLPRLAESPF

[3] = Clearance following intravenous infusion, acylated peptides (1-hour infusion, 0.033 mg/kg); settings: rat, in vivo
[4] = hGLP1 pEC50 (cAMP mean (n = 3): 11 point curve starting at 1 nM, Table 3)
[5] = hGLP1 pEC50 (cAMP) mean (n = 3): 11 point curve starting at 1 nM, Table 2B
[6] = Table 7, GLP-1R, read-out: GLP-1R pEC50 (converted)

| Compound | EC50 (human GLP-1R; [4]) [nM] | EC50 (human GLP-1R; [5]) [nM] | solubility [1] [mg/mL] | Stability 1 mg/ml in water at 37 degC [2] [%] | clearance (in vivo) [mL/min/kg] | CL (FIGURE 2A) [mL/min/kg] | EC50 (human GCGR) [nM] | EC50 (human GLP-1R; [6]) [nM] | clearance [3] [mL/min/kg] | half-life [3] [h] |
| --- | --- | --- | --- | --- | --- | --- | --- | --- | --- | --- |
| CC(C)C[C@H](NC(=O)[C@H](Cc1ccc(O)cc1)NC(=O)[C@H](CCCCN)NC(=O)[C@H](CO)NC(=O)[C@H](Cc1ccc(O)cc1)NC(=O)[C@H](CC(=O)O)NC(=O)[C@H](CO)NC(=O)[C@@H](NC(=O)[C@H](Cc1ccccc1)NC(=O)[C@@H](NC(=O)CNC(=O)[C@H](Cc1c[nH]cn1)NC(=O)[C@H](CO)NC(=O)[C@@H](N)Cc1ccc(O)cc1)[C@@H](C)O)[C@@H](C)O)C(=O)N[C@@H](CC(=O)O)C(=O)N[C@@H](C)C(=O)N[C@@H](C)C(=O)N[C@@H](CCCNC(=N)N)C(=O)N[C@@H](C)C(=O)N[C@@H](CCC(N)=O)C(=O)N[C@@H](CCC(=O)O)C(=O)N[C@@H](Cc1ccccc1)C(=O)N[C@H](C(=O)N[C@@H](CCCCN)C(=O)N[C@@H](Cc1c[nH]c2ccccc12)C(=O)N[C@@H](CC(C)C)C(=O)N[C@@H](CCC(=O)O)C(=O)N[C@@H](CC(=O)O)C(=O)N[C@@H](CCC(=O)O)C(=O)N1CCC[C@H]1C(=O)N[C@@H](CO)C(=O)N[C@@H](CO)C(=O)NCC(=O)N[C@@H](C)C(=O)N1CCC[C@H]1C(=O)N1CCC[C@H]1C(=O)N1CCC[C@H]1C(=O)N[C@@H](CO)C(=O)O)C(C)C [Compound A97] (H-YSHGTFTSDYSKYLDAARAQEFVKWLEDEPSSGAPPPS-OH; N-terminus assumed) | > 1 | > 1 | > 200 | >59 | 18.9 | – | – | – | – | – |
| CC(C)C[C@H](NC(=O)[C@H](Cc1c[nH]c2ccccc12)NC(=O)[C@H](CCCCN)NC(=O)[C@@H](NC(=O)[C@H](Cc1ccccc1)NC(=O)[C@H](CCC(=O)O)NC(=O)[C@H](CCC(N)=O)NC(=O)[C@H](C)NC(=O)[C@H](CCCNC(=N)N)NC(=O)[C@H](CCCCN)NC(=O)[C@H](CO)NC(=O)[C@H](CCC(=O)O)NC(=O)[C@H](CC(C)C)NC(=O)[C@H](CC(C)C)NC(=O)[C@H](CCCNC(=N)N)NC(=O)[C@@H](NC(=O)[C@H](Cc1ccc(O)cc1)NC(=O)[C@H](CC(=O)O)NC(=O)[C@H](CO)NC(=O)[C@@H](NC(=O)[C@H](Cc1ccccc1)NC(=O)[C@@H](NC(=O)CNC(=O)[C@H](Cc1c[nH]cn1)NC(=O)[C@H](CO)NC(=O)[C@@H](N)Cc1ccc(O)cc1)[C@@H](C)O)[C@@H](C)O)[C@@H](C)O)C(C)C)C(=O)N[C@@H](CCC(=O)O)C(=O)N[C@@H](CC(=O)O)C(=O)N[C@@H](CCC(=O)O)C(=O)N1CCC[C@H]1C(=O)N[C@@H](CO)C(=O)N[C@@H](CO)C(=O)NCC(=O)N[C@@H](C)C(=O)N1CCC[C@H]1C(=O)N1CCC[C@H]1C(=O)N1CCC[C@H]1C(=O)N[C@@H](CO)C(=O)O [Compound A98] (H-YSHGTFTSDYTRLLESKRAQEFVKWLEDEPSSGAPPPS-OH; N-terminus assumed) | > 1 | > 1 | > 200 | >75 | – | 51.5 ± 13.4 | – | – | – | – |
| CC(C)C[C@H](NC(=O)[C@H](Cc1ccc(O)cc1)NC(=O)[C@H](CCCCN)NC(=O)[C@H](CO)NC(=O)[C@H](Cc1ccc(O)cc1)NC(=O)[C@H](CC(=O)O)NC(=O)[C@H](CO)NC(=O)[C@@H](NC(=O)[C@H](Cc1ccccc1)NC(=O)[C@@H](NC(=O)CNC(=O)[C@H](Cc1c[nH]cn1)NC(=O)[C@H](CO)NC(=O)[C@@H](N)Cc1ccc(O)cc1)[C@@H](C)O)[C@@H](C)O)C(=O)N[C@@H](CC(=O)O)C(=O)NC(C)(C)C(=O)N[C@@H](CCCCN)C(=O)N[C@@H](CCCNC(=N)N)C(=O)N[C@@H](C)C(=O)N[C@@H](CCC(N)=O)C(=O)N[C@@H](CCC(=O)O)C(=O)N[C@@H](Cc1ccccc1)C(=O)N[C@H](C(=O)NC(C)(C)C(=O)N[C@@H](Cc1c[nH]c2ccccc12)C(=O)N[C@@H](CC(C)C)C(=O)N[C@@H](CCC(=O)O)C(=O)N[C@@H](CC(=O)O)C(=O)N[C@@H](CCC(=O)O)C(=O)O)C(C)C [Compound A100] | > 1 | > 1 | > 200 | >69 | – | 120 ± 39 | – | – | – | – |
| CC(C)C[C@H](NC(=O)[C@H](Cc1c[nH]c2ccccc12)NC(=O)[C@H](CCCCNC(=O)COCCOCCNC(=O)COCCOCCNC(=O)CC[C@H](NC(=O)CCCCCCCCCCCCCCCCC(=O)O)C(=O)O)NC(=O)[C@@H](NC(=O)[C@H](Cc1ccccc1)NC(=O)[C@H](CCC(=O)O)NC(=O)[C@H](CCC(N)=O)NC(=O)[C@H](C)NC(=O)[C@H](CO)NC(=O)[C@H](CCCCN)NC(=O)C(C)(C)NC(=O)[C@H](CC(=O)O)NC(=O)[C@H](CC(C)C)NC(=O)[C@H](Cc1ccc(O)cc1)NC(=O)[C@H](CCCCN)NC(=O)[C@H](CO)NC(=O)[C@H](Cc1ccc(O)cc1)NC(=O)[C@H](CC(=O)O)NC(=O)[C@H](CO)NC(=O)[C@@H](NC(=O)[C@H](Cc1ccccc1)NC(=O)[C@@H](NC(=O)CNC(=O)[C@H](Cc1c[nH]cn1)NC(=O)[C@H](CO)NC(=O)[C@@H](N)Cc1ccc(O)cc1)[C@@H](C)O)[C@@H](C)O)C(C)C)C(=O)N[C@@H](CCC(=O)O)C(=O)N[C@@H](CC(=O)O)C(=O)N[C@@H](CCC(=O)O)C(=O)N1CCC[C@H]1C(=O)N[C@@H](CO)C(=O)N[C@@H](CO)C(=O)NCC(=O)N[C@@H](C)C(=O)N1CCC[C@H]1C(=O)N1CCC[C@H]1C(=O)N1CCC[C@H]1C(=O)N[C@@H](CO)C(=O)O [Compound B14] | – | – | – | – | – | – | 0.501 | > 1000 | 2.65 | 13.9 |
| CC(C)C[C@H](NC(=O)[C@H](Cc1ccc(O)cc1)NC(=O)[C@H](CCCCN)NC(=O)[C@H](CO)NC(=O)[C@H](Cc1ccc(O)cc1)NC(=O)[C@H](CC(=O)O)NC(=O)[C@H](CO)NC(=O)[C@@H](NC(=O)[C@H](Cc1ccccc1)NC(=O)[C@@H](NC(=O)CNC(=O)[C@H](Cc1c[nH]cn1)NC(=O)[C@H](CO)NC(=O)[C@@H](N)Cc1ccc(O)cc1)[C@@H](C)O)[C@@H](C)O)C(=O)N[C@@H](CC(=O)O)C(=O)N[C@@H](CCCCNC(=O)COCCOCCNC(=O)COCCOCCNC(=O)CC[C@H](NC(=O)CCCCCCCCCCCCCCCCC(=O)O)C(=O)O)C(=O)N[C@@H](CCCCN)C(=O)N[C@@H](CO)C(=O)N[C@@H](C)C(=O)N[C@@H](CCC(N)=O)C(=O)N[C@@H](CCC(=O)O)C(=O)N[C@@H](Cc1ccccc1)C(=O)N[C@H](C(=O)NC(C)(C)C(=O)N[C@@H](Cc1c[nH]c2ccccc12)C(=O)N[C@@H](CC(C)C)C(=O)N[C@@H](CCC(=O)O)C(=O)N[C@@H](CC(=O)O)C(=O)N[C@@H](CCC(=O)O)C(=O)N1CCC[C@H]1C(=O)N[C@@H](CO)C(=O)N[C@@H](CO)C(=O)NCC(=O)N[C@@H](C)C(=O)N1CCC[C@H]1C(=O)N1CCC[C@H]1C(=O)N1CCC[C@H]1C(=O)N[C@@H](CO)C(=O)O)C(C)C [Compound B15] | – | – | – | – | – | – | 0.126 | > 1000 | 0.457 | 9.34 |
| CCCCCCCCCCCCCCCC(=O)N[C@@H](CCC(=O)NCCCC[C@H](NC(=O)[C@H](CO)NC(=O)[C@H](CCCCN)NC(=O)[C@@H]1CCCN1C(=O)[C@H](CCC(=O)O)NC(=O)[C@H](CC(=O)O)NC(=O)[C@H](CCC(=O)O)NC(=O)[C@H](CC(C)C)NC(=O)[C@H](Cc1c[nH]c2ccccc12)NC(=O)[C@H](CCCCN)NC(=O)[C@@H](NC(=O)[C@H](Cc1ccccc1)NC(=O)[C@H](CCC(=O)O)NC(=O)[C@H](CCC(N)=O)NC(=O)[C@H](C)NC(=O)[C@H](CCCNC(=N)N)NC(=O)[C@H](C)NC(=O)[C@H](C)NC(=O)[C@H](CC(=O)O)NC(=O)[C@H](CC(C)C)NC(=O)[C@H](Cc1ccc(O)cc1)NC(=O)[C@H](CCCCN)NC(=O)[C@H](CO)NC(=O)[C@H](Cc1ccc(O)cc1)NC(=O)[C@H](CC(=O)O)NC(=O)[C@H](CO)NC(=O)[C@@H](NC(=O)[C@H](Cc1ccccc1)NC(=O)[C@@H](NC(=O)CNC(=O)[C@H](CCC(N)=O)NC(=O)[C@H](CO)NC(=O)[C@@H](N)Cc1ccc(O)cc1)[C@@H](C)O)[C@@H](C)O)C(C)C)C(=O)N[C@@H](CO)C(=O)N1CCC[C@H]1C(=O)N1CCC[C@H]1C(=O)N1CCC[C@H]1C(=O)N[C@@H](CO)C(N)=O)C(=O)O [Compound B33] (H-YSQGTFTSDYSKYLDAARAQEFVKWLEDEPKSK([γGlu-Palmitoyl])SPPPS-NH2) | – | – | – | – | – | – | 0.0251 | > 1000 | 6.96 | 0.429 |
| CCCCCCCCCCCCCCCC(=O)N[C@@H](CCC(=O)NCCCC[C@H](NC(=O)[C@H](CO)NC(=O)[C@H](CO)NC(=O)[C@@H]1CCCN1C(=O)[C@H](CCC(=O)O)NC(=O)[C@H](CC(=O)O)NC(=O)[C@H](CCC(=O)O)NC(=O)[C@H](CC(C)C)NC(=O)[C@H](Cc1c[nH]c2ccccc12)NC(=O)[C@H](CCCCN)NC(=O)[C@@H](NC(=O)[C@H](Cc1ccccc1)NC(=O)[C@H](CCC(=O)O)NC(=O)[C@H](CCC(N)=O)NC(=O)[C@H](C)NC(=O)[C@H](CCCNC(=N)N)NC(=O)[C@H](C)NC(=O)[C@H](CO)NC(=O)[C@H](CC(=O)O)NC(=O)[C@H](CC(C)C)NC(=O)[C@H](Cc1ccc(O)cc1)NC(=O)[C@H](CCCCN)NC(=O)[C@H](CO)NC(=O)[C@H](Cc1ccc(O)cc1)NC(=O)[C@H](CC(=O)O)NC(=O)[C@H](CO)NC(=O)[C@@H](NC(=O)[C@H](Cc1ccccc1)NC(=O)[C@@H](NC(=O)CNC(=O)[C@H](Cc1c[nH]cn1)NC(=O)[C@H](CO)NC(=O)[C@@H](N)Cc1ccc(O)cc1)[C@@H](C)O)[C@@H](C)O)C(C)C)C(=O)N[C@@H](C)C(=O)N1CCC[C@H]1C(=O)N1CCC[C@H]1C(=O)N1CCC[C@H]1C(=O)N[C@@H](CO)C(N)=O)C(=O)O [Compound B41] (H-YSHGTFTSDYSKYLDSARAQEFVKWLEDEPSSK([γGlu-Palmitoyl])APPPS-NH2) | – | – | – | – | – | – | 0.0251 | > 1000 | 4.86 | 1.09 |

— patent US20240239861A1, “GLUCAGON-RECEPTOR SELECTIVE POLYPEPTIDES AND METHODS OF USE THEREOF” (i2O Therapeutics, Inc., priority 2016, published 2024)
